The numbers were not newly measured in patent publication US20140294972A1, “Oral Suspension” (NOVA BIO-PHARMA TECHNOLOGIES LIMITED, priority 2011, published 2014), which cites them from elsewhere.

The conditions of this data set: neutral pH.

For `Sc1ncnc2nc[nH]c12` [6-MP, 3,7-dihydropurine-6-thione], the water solubility entry is given as “about 6.85 mg/mL”.
